Assay results taken from patent US20230364121A1 (priority 2020, published 2023).
“And” between values parts separate entries of the source, which are not always exact repeats. Identical values can stand only once.

What was measured:
SARS-CoV-2 viral genome = format: cell-based
[1] = molecular target: T1, SARS-CoV-2 ExoN (nsp14/nsp10) (Severe acute respiratory syndrome coronavirus 2, UniProt P0DTD1); format: biochemical
T1 construct: 50 nM nsp14/nsp10 (1:5) were added for time-course reactions

Compound	Mean number of mutations, transition A > G (SARS-CoV-2 viral genome)	Mean number of mutations, transition C > T (SARS-CoV-2 viral genome)	Mean number of mutations, transition G > A (SARS-CoV-2 viral genome)	Mean number of mutations, transition T > C (SARS-CoV-2 viral genome)	Number of Mutations, transition A > G (SARS-CoV-2 viral genome)	Number of Mutations, transition C > T (SARS-CoV-2 viral genome)	Number of Mutations, transition G > A (SARS-CoV-2 viral genome)	Number of Mutations, transition T > C (SARS-CoV-2 viral genome)	number of mutations compared to virus control Vc (SARS-CoV-2 viral genome)	resistance to ExoN mediated excision relative to an unmodified RNA 3′-end [1] [fold]
CC(C)C(=O)OC[C@H]1O[C@@H](n2ccc(NO)nc2=O)[C@H](O)[C@@H]1O [Molnupiravir, molnupiravir]	842	592	385	910.5	813 and 871	602 and 582	385	932 and 889	significant increase in the number of mutations	–
CC(C)C[C@H](NC(=O)OCc1ccccc1)C(=O)N[C@@H](CC1CCNC1=O)C(O)S(=O)(=O)[O-].[Na+] (stereo partly shown) [GC 376]	465.5	62	14.5	532.5	545 and 368	51 and 73	–	662 and 403	–	–
C[C@@]1(F)[C@H](O)[C@@H](COP(=O)(O)OP(=O)(O)OP(=O)(O)O)O[C@H]1n1ccc(=O)[nH]c1=O [STP, 5′-triphosphate 2′-fluoro-2′-C-methyl uridine]	–	–	–	–	–	–	–	–	–	~1.2
C[C@@]1(F)[C@H](O)[C@@H](COP(=O)(O)OP(=O)(O)OP(=O)(O)O)O[C@H]1n1cnc2c(=O)[nH]c(N)nc21 [AT-9010, 2′-fluoro-2′-C-methylguanosine-5′-triphosphate]	–	–	–	–	–	–	–	–	–	~4.8
CNc1nc(N)nc2c1ncn2[C@@H]1O[C@H](COP(=O)(N[C@@H](C)C(=O)OC(C)C)Oc2ccccc2)[C@@H](O)[C@@]1(C)F (stereo partly shown) [Compound 1A]	429	24.5	6	473	454 and 404	22 and 27	7 and 5	489 and 457	did not show an increased number of mutations	–
CC(C)C[C@H](NC(=O)OCc1ccccc1)C(=O)N[C@@H](C[C@@H]1CCNC1=O)C(O)S(=O)(=O)O (stereo partly shown) [GC376]	–	–	–	–	–	–	–	–	slight increase of the number of mutations	–
